In patent US6930314B2, “Light detection device” (Molecular Devices Corporation, priority 2000, dated 2005):

Test system: CHO ml cells
Test: Calcium flux assay
Assay type: cell-based
Settings: CHO ml cells in 384-well microplate loaded with fluorescent calcium ion indicator; carbachol 10 nM, 100 nM, 10 μM; single selected well, frames about two seconds apart
Protocol: This example, illustrated in FIGS. 6 and 7, describes calcium flux assays conducted using an apparatus constructed in accordance with aspects of the invention.
Cultured CHO ml cells were grown overnight in a 384-well microplate, then loaded with a cell-permeant form of a fluorescent calcium ion indicator for 1 hour. […] The manual addition of carbachol (a calcium flux stimulant) in 10 nM, 100 nM, and 10 μM concentrations was used to mimic small, medium, and large sustained responses.
The figure records the average light intensity in a single selected well as a function of frame number (each frame taken approximately two seconds apart), where the selected well was one to which carbachol was added.
Here, no sustained increase in signal strength was observed, although there were small fluctuations due to shot-to-shot variations in illumination laser intensity.

SMILES: C[N+](C)(C)CCOC(N)=O [carbachol]
- fluorescence signal (calcium flux response) after addition of carbachol: rapid increase in the fluorescence signal over the first few frames, with a slow decay
